[ ]: non-standard residue; d: D form.
B1: LM609: mouse monoclonal antibody, anti-αvβ3 (antibody, V domains shown)
VH: EVQLEESGGGLVKPGGSLKLSCAASGFAFSSYDMSWVRQIPEKRLEWVAKVSSGGGSTYYLDTVQGRFTISRDNAKNTLYLQMSSLNSEDTAMYYCARHNYGSFAYWGQGTLVTVSA
VL: ELVMTQTPATLSVTPGDSVSLSCRASQSISNHLHWYQQKSHESPRLLIKYASQSISGIPSRFSGSGSGTDFTLSINSVETEDFGMYFCQQSNSWPHTFGGGTKLEIKRA

Legend:
integrin αIIbβ3 = integrin αIIbβ3 (Homo sapiens, UniProt P05106+P08514); settings: cited from earlier work
UCLAP-3 tumors = test: tumor regression on chick CAM, UCLAP-3 tumors, intravenous peptide; assay type: in vivo; settings: 100 ug peptide intravenously 18 hours postimplantation; 48 hours more
Description: (§1) In one particular set of assays, additional tumor regression assays were performed with the αvβ5-reactive peptide 85189 (SEQ ID NO 9) against 69601 (SEQ ID NO 5) as a control. The assays were performed as described above with the exception that 100 ug of peptide was intravenously injected into the CAM at 18 hourst postimplantation of the various tumors which in this case included UCLAP-3, M21-L and FgM tumor types. After 48 hours more, the tumors were then resected and wet weights were obtained.

[1] = test system: bFGF-induced angiogenesis; test: chick CAM assay, bFGF-induced angiogenesis, intravenous inhibitors; assay type: in vivo; settings: for inhibition of bFGF-induced CAM angiogenesis: bFGF 150 ng/ml, 75 μg antibody or peptide intravenously, 72 hours
Description: Ten day old chick embryos were obtained from McIntyre Poultry (Lakeside, Calif.) and incubated at 37C with 60% humidity. A small hole was made through the shell at the end of the egg directly over the air sac with the use of a small crafts drill (Dremel, Division of Emerson Electric Co., Racine, Wis.). A second hole was drilled on the broad side of the egg in a region devoid of embryonic blood vessels determined previously by candling the egg. […] A 1.0 centimeter (cm)×1.0 cm square window was cut through the shell over the dropped CAM with the use of a small model grinding wheel (Dremel). The small window allowed direct access to the underlying CAM.
Angiogenesis was induced by placing a 5 millimeter (mm)×5 mm Whatman filter disk (Whatman Filter paper No. 1) saturated with Hanks Balanced Salt Solution (HBSS, GIBCO, Grand Island, N.Y.) or HBSS containing preselected cytokines at a preselected concentration, i.e. one to test the effect on angiogenesis, on the CAM of a 10 day chick embryo in a region devoid of blood vessels and the windows were later sealed with tape. Angiogenesis was monitored by photomicroscopy after 72 hours. CAMs were snap frozen then 6 μm cryostat sections were fixed with acetone and stained by immunofluorescence as described in Example 2B and 2C with 10 μg/ml of selected anti-integrin antibodies, including those directed against αvβ5 as described in Example 1.
Angiogenesis was first induced on 10 day old chick embryos by application of growth factor-saturated filter disks. Specifically, in the first assays, angiogenesis was induced by exposure to either bFGF or VEGF, each at a concentration of 150 ng/ml.
For application of growth factors, during the candling procedures, prominent blood vessels were selected and marks were made on the egg shell to indicate their positions. The holes were drilled in the shell, the CAMs were dropped and growth factor-saturated filter papers were then separately placed on the CAMs as described above. The windows were sealed with sterile tape and the embryos were replaced in the incubator.
Twenty four hours later, a second small window was carefully cut on the lateral side of the egg shell directly over prominent blood vessels selected previously. The outer egg shell was carefully removed leaving the embryonic membranes intact. The shell membrane was made transparent with a small drop of mineral oil (Perkin-Elmer Corp, Norwalk, Conn.) which allowed the blood vessels to be visualized easily. Then, phosphate buffered saline (PBS), 75 μg of purified sterile anti-integrin antibodies or 75 μg of synthetic peptides (cyclic peptide RGDfV, SEQ ID NO 4 and control cyclic peptide RADfV, SEQ ID NO 5) in PBS were injected into blood vessels apparent on the growth factor-induced CAMs. The windows were sealed with tape and the embryos were allowed to incubate until 72 hours.
The filter discs and representative surrounding CAM tissues were photographed in a stereomicroscope (FIGS. 3A–3F and FIGS. 5A–5F) and the mean angiogenic index +/− the standard error was determined for 12 CAMs per condition (FIGS. 4A–4B and FIGS. 6A–6B). Angiogenesis was scored for each embryo in a double blind manner by analyzing the number and extent of branching of blood vessels within the area of each disc. The scores ranged from 1 (low) to 4 (high) and the angiogenesis index was determined by subtracting a background of 1 from all data. […]

FgM tumors = test: tumor regression on chick CAM, FgM tumors, intravenous peptide; assay type: in vivo; settings: 100 ug peptide intravenously 18 hours postimplantation; 48 hours more
Description: as §1

M21-L tumors = test: tumor regression on chick CAM, M21-L tumors, intravenous peptide; assay type: in vivo; settings: 100 ug peptide intravenously 18 hours postimplantation; 48 hours more
Description: as §1

integrin αvβ3 = integrin αvβ3 (Homo sapiens, UniProt P05106+P06756); settings: cited from earlier work
Sequence of integrin αvβ3 (P06756 31-889 limits assumed): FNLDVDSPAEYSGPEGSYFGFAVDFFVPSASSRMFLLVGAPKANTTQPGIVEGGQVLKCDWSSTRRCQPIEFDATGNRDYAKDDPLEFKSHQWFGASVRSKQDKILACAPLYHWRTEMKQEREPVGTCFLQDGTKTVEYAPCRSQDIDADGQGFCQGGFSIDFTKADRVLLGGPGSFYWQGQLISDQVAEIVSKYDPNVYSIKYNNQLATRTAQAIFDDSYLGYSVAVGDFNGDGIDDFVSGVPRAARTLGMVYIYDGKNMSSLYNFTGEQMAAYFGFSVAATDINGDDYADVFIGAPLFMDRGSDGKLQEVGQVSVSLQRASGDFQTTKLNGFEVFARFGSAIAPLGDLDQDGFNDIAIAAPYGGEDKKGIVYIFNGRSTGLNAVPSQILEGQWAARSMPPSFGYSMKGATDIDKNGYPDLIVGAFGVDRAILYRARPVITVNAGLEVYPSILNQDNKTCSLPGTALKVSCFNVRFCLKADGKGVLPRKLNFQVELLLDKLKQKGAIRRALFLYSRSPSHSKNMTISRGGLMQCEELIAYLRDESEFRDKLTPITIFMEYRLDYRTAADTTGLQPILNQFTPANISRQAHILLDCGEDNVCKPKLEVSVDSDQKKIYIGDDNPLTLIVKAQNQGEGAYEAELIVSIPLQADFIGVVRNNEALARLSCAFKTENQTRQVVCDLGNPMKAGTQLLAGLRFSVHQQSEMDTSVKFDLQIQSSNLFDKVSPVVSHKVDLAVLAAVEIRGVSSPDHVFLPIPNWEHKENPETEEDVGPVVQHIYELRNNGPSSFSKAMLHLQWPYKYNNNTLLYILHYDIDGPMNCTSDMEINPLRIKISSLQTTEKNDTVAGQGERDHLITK
Sequence of integrin αvβ3 (P06756 891-1048 partner limits assumed): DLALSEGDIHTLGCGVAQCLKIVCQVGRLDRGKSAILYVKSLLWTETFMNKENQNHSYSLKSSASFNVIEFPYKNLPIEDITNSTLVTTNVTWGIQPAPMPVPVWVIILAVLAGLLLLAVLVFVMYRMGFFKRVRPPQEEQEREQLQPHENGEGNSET
Sequence of integrin αvβ3 (P05106 27-788): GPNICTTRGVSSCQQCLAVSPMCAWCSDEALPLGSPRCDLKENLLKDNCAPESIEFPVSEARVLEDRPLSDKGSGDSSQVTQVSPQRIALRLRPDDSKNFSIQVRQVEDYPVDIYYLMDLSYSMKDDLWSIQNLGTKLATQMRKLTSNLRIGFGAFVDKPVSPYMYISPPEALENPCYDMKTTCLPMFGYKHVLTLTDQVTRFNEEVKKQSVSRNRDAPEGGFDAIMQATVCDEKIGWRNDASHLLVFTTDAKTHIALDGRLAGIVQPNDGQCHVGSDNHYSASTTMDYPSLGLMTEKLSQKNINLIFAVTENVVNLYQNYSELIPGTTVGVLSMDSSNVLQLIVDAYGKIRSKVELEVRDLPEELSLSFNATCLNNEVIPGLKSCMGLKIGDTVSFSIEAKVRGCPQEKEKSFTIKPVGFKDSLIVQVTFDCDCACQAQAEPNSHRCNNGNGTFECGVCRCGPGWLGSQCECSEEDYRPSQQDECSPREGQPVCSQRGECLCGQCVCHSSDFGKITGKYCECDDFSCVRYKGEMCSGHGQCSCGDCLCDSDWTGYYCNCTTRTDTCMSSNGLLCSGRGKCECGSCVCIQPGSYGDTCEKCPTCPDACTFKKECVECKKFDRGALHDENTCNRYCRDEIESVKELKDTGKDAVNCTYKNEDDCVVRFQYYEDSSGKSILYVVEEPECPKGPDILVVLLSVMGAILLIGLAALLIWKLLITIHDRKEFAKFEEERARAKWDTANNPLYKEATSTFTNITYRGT

CS-1 melanoma tumors = test: CS-1 melanoma tumor growth on chick embryo CAM, intravenous mAbs; assay type: in vivo; settings: 100 to 300 μg mAb once intravenously; 7 days
Description: Angiogenesis is induced in the CAM assay system by direct apposition of a tumor fragment on the CAM. Preparation of the chick embryo CAM is identical to the procedure described above. Instead of a filter paper disk, a 50 milligram (mg) to 55 mg in weight fragment of one αvβ5-negative tumor resulting from growth of cell line suspensions described below, is placed on the CAM in an area originally devoid of blood vessels.
In one embodiment, hamster melanoma cells, CS-1, obtained from Dr. Caroline Damsky from University of California at San Francisco, were used in the CAM assay as described above for formation of melanoma tumors. Following the transfer of approximately a 50 mg CS-1 tumor fragment on a new 10 day chick embryo CAM, separate preparations received an intravenous injections of either 100 μg or 300 μg of P1F6 antibody, LM609 antibody or control CSAT (anti-β1) antibody. An additional control included a preparation that received no treatment. The results are discussed below in Example 6D.
Tumor-induced blood vessels prepared above were also treated with mAbs applied by intravenous injection. […] After this time period, the tumors were resected and analyzed by their weight to determine the effect of antibody exposure on tumor growth or suppression.

Molecule | inhibition of binding of fibrinogen to integrin αIIbβ3 (integrin αIIbβ3) | effect on tumor wet weight, UCLAP-3 (UCLAP-3 tumors) | inhibition of bFGF-induced CAM angiogenesis [1] | effect on tumor wet weight, FgM (FgM tumors) | effect on tumor wet weight, M21-L (M21-L tumors) | inhibition of binding of fibrinogen to integrin αvβ3 (integrin αvβ3) | inhibition of CS-1 tumor growth (CS-1 melanoma tumors) | effect on CAM angiogenesis in response to bFGF (angiogenesis index) ([1]; bFGF 1.0 μg/ml, antibodies 75 μg per embryo, calphostin C 100 nM)
cyclo(Arg-Ala-Asp-D-Phe-Val) (cyclo(RAD[dF]V); SMILES CC(C)[C@@H]1NC(=O)[C@@H](Cc2ccccc2)NC(=O)[C@H](CC(=O)O)NC(=O)[C@H](C)NC(=O)[C@H](CCCNC(=N)N)NC1=O) [peptide 69601, reference compound] | not inhibit binding | lack of effect | did not effect angiogenesis | lack of effect | lack of effect | inhibiting binding | – | –
cyclo(Arg-Gly-Asp-D-Phe-NMeVal) [peptide 85189] | – | reduction in tumor weight | – | reduction in tumor weight | reduction in tumor weight | – | – | –
B1 | – | – | inhibited bFGF-induced angiogenesis | – | – | – | also inhibited tumor growth, however, less effective than that with P1F6 | blocked angiogenesis

Source: US7053041B1, “Methods and compositions useful for inhibition of αvβ5mediated angiogenesis” (The Scripps Research Institute, priority 1996, dated 2006)
